Test results from patent US20230190743A1, “TREATMENT WITH ILEAL BILE ACID TRANSPORTER (IBAT) INHIBITORS FOR INCREASED EVENT-FREE SURVIVAL (EFS)” (Mirum Pharmaceuticals, Inc., priority 2021, published 2023).

Tests used:
Format in all cases: in vivo, human
[1] = test system: patients with Alagille syndrome (ALGS); test: 6-year event-free survival analysis, maralixibat cohort versus GALA control group
Description: Real-world evidence (RWE) analytics continue to advance natural history comparisons in rare diseases. GALA is the largest global clinical research database for […] syndrome (ALGS). Maralixibat (MRX) is an ileal bile acid transporter inhibitor being studied in ALGS. A pre-specified analysis plan applied novel analytical techniques to compare RWE to a MRX cohort with the aim to compare event-free survival (EFS) in patients with ALGS. GALA contains retrospective data for clinical parameters, biochemistries and outcomes. The MRX database comprises of 84 ALGS patients with up to 6 years of data. EFS was defined as the time to first event of hepatic decompensation (variceal bleeding, ascites requiring therapy), surgical biliary diversion, liver transplantation (LT), or death. GALA was filtered to align key MRX eligibility criteria. The index time was determined via maximum likelihood estimation. Balance among baseline (BL) variables was assessed. Selection of patients and index time was blinded to clinical outcomes. Sensitivity and subgroup analyses, and adjustments for covariates were applied. Missing outcomes data were censored at last contact.

[2] = test system: patients with BSEP deficiency (PFIC2); test: INDIGO Phase 2 trial, HRQoL analysis by sBA treatment response at week 48; set-up: key to HRQoL score at week 48, PedsQL Generic Core Scale / HRQoL score at week 48, Multidimensional Fatigue Scale / HRQoL score at week 48, Family Impact Scale: HRQoL scale scores in points; MCID = 5 points; key to Beta, sBA treatment response at week 48 Yes vs No, Multidimensional Fatigue Scale / Beta, sBA treatment response at week 48 Yes vs No, Family Impact Scale: change from baseline in HRQoL score, in points (MCID 5 points); settings: for 5-point change, Family Impact Scale / 5-point change, Multidimensional Fatigue Scale / 5-point change, PedsQL Generic Core Scale / 10-point change, Family Impact Scale / 10-point change, Multidimensional Fatigue Scale / 10-point change, PedsQL Generic Core Scale: baseline to week 48; for HRQoL score at week 48, Family Impact Scale / HRQoL score at week 48, Multidimensional Fatigue Scale / HRQoL score at week 48, PedsQL Generic Core Scale / HRQoL score change from baseline to week 48, Family Impact Scale: mean ± SD
Experimental: This retrospective analysis included data from patients with BSEP deficiency from the INDIGO Phase 2 open-label trial of MRX in children with PFIC. Pruritus was measured using a validated caregiver-reported Itch Reported Outcome (ItchRO) severity assessment tool (0=none to 4=very severe). Serum bile acid (sBA) response with MRX was defined as a >75% decrease from baseline or reduction to <102 μmol/L from baseline to week 48. HRQoL was assessed using the Pediatric Quality of Life Inventory Generic Core (PedsQL), Family Impact (FI), and Multidimensional Fatigue (MF) scale scores, and were collected via caregiver. The minimal clinically important difference (MCID) for the HRQoL assessments is 5 points. A subset of individual items from the HRQoL scales were also selected for assessment with treatment response. HRQoL was assessed at baseline and week 48 and scores were stratified by treatment response. P-values were calculated using t-test or ANOVA. Multivariate linear regression models were used to assess the relationship between mean change from baseline in HRQoL score and indicators for treatment response, adjusting for baseline HRQoL.

children with ALGS = test: ICONIC study, correlation of pruritus intensity (ItchRO) with cholestasis biomarkers and quality of life
Description: This study evaluates how change in pruritus intensity correlates with change in cholestasis biomarkers in children with ALGS receiving maralixibat (ICONIC study; NCT02160782, described above). The goal of the present study is to characterize correlations between pruritus, as measured by the Itch-Reported Outcome (ItchRO) Observer tool, and multiple parameters, including sBA and sBA subspecies, autotaxin (ATX), and quality of life measures following maralixibat treatment in children with ALGS. Twenty-nine of the 31 enrolled participants completed 48 weeks of treatment, with 27 evaluated for this analysis.

[3] = over the 48 weeks, controlling for baseline score

## CCCCC1(CCCC)CS(=O)(=O)c2ccc(N(C)C)cc2[C@@H](c2ccc(OCc3ccc(C[N+]45CCN(CC4)CC5)cc3)cc2)[C@H]1O [maralixibat]
[1]; MRX cohort, patients with ALGS (GALA control 50%)
  crude 6-year EFS: 73%
[1]; adjusted for age, sex, TB, ALT, 95% CI:0.189-0.491, p<0.0001
  EFS hazard ratio (HR), MRX cohort vs GALA control: 0.305
[2]; at 48 weeks
  patients who achieved sBA treatment response: 6 patients
  patients who achieved sBA treatment response (>75% decrease from baseline or <102 μmol/L): 28.6%
[2]; multivariate regression, N = 16, CI 3.5, 41.1
  Beta, sBA treatment response at week 48 Yes vs No, Multidimensional Fatigue Scale: 22.3
[2]; multivariate regression, N = 20, CI −7.7, 19.4
  Beta, sBA treatment response at week 48 Yes vs No, Family Impact Scale: 5.8
[2]; [3]
  average increase of Multidimensional Fatigue scale score, sBA responders versus non-responders: 22 points
  mean increase of PedsQL score, sBA responders versus non-responders: 17 points
[2]; sBA Non-responders
  5-point change, Family Impact Scale: 1 (7.1) n (%)
  5-point change, Multidimensional Fatigue Scale: 3 (25.0) n (%)
  5-point change, PedsQL Generic Core Scale: 2 (15.4) n (%)
  10-point change, Family Impact Scale: 1 (7.1) n (%)
  10-point change, Multidimensional Fatigue Scale: 2 (16.7) n (%)
  10-point change, PedsQL Generic Core Scale: 2 (15.4) n (%)
  HRQoL score at week 48, Family Impact Scale: 62.7 ± 16.0
  HRQoL score at week 48, Multidimensional Fatigue Scale: 69.2 ± 18.5
  HRQoL score at week 48, PedsQL Generic Core Scale: 65.9 ± 13.8
  HRQoL score change from baseline to week 48, Family Impact Scale: −2.5 ± 9.8
[2]; sBA Responders
  5-point change, Family Impact Scale: 4 (66.7) n (%)
  5-point change, Multidimensional Fatigue Scale: 4 (100) n (%)
  5-point change, PedsQL Generic Core Scale: 4 (80.0) n (%)
  10-point change, Family Impact Scale: 4 (66.7) n (%)
  10-point change, Multidimensional Fatigue Scale: 4 (100) n (%)
  10-point change, PedsQL Generic Core Scale: 3 (60.0) n (%)
  HRQoL score at week 48, Family Impact Scale: 60.0 ± 15.5
  HRQoL score at week 48, Multidimensional Fatigue Scale: 76.0 ± 13.4
  HRQoL score at week 48, PedsQL Generic Core Scale: 79.3 ± 9.5
  HRQoL score change from baseline to week 48, Family Impact Scale: 8.0 ± 20.7
[2]; sBA non-responders
  patients with a change of ≥5 points in PedsQL Generic Core Total Scale Score: 15.4%
  patients with a ≥10-point change in PedsQL Multidimensional Fatigue Total Scale Score: 16.7%
[2]; sBA responders
  change in Family Impact Score from baseline to week 48: > 1.5 times the MCID
  patients with a change of ≥5 points in PedsQL Generic Core Total Scale Score: 80.0%
  patients with a ≥10-point change in PedsQL Multidimensional Fatigue Total Scale Score: 100%
Children with ALGS; at week 48
  overall average ItchRO score reduction: 1.6 points
Children with ALGS; one participant
  ItchRO score reduction of the one participant who normalized: −3.5 points
Children with ALGS; result in words
  pruritus, using ItchRO and CSS scores: significant and clinically meaningful improvements in pruritus
Children with ALGS; sBA reduction (%) 50, N 8
  Change in ItchRO score (points): −1.90 points
Children with ALGS; sBA reduction (%) 60, N 8
  Change in ItchRO score (points): −2.12 points
Children with ALGS; sBA reduction (%) 70, N 6
  Change in ItchRO score (points): −2.31 points
Children with ALGS; sBA reduction (%) 80, N 3
  Change in ItchRO score (points): −2.79 points
Children with ALGS; sBA reduction (%) 90, N 1
  Change in ItchRO score (points): −2.71 points
